Test results taken from patent US8268864B2, “Combination of anticholinergics and leukotriene receptor antagonists for the treatment of respiratory diseases” (Meda Pharma GmbH & Co. KG, priority 2005, dated 2012).

Columns and labels:
M3 muscarinic receptors = M3 muscarinic receptors (Homo sapiens, UniProt P20309); conditions: kinetics studies (Haddad et al.); cited from earlier work
M1-M3 receptors = conditions: cited from earlier work
[1] = inhaled; asthmatic subjects (Makker); cited from earlier work
[2] = system: chemotactic response in the guinea pig conjunctiva; conditions: guinea pig conjunctiva (Chan); cited from earlier work
TNFα release = conditions: R,R-glycopyrrolate alone, up to 10 μmol/l; LPS 100 ng/ml
Excerpt: (§1) Not only TNFα but also IL-2 plays an important role in inflammatory airway diseases. It is known that in certain forms of asthma (e.g. intrinsic and occupational), particular subsets of T cells produce, among others, IL-2 (Ricci et al.; J Investig Allergol Clin Immunol 1994; 4:214-20). Moreover, allergic patients have special populations of T cells which can be induced to secrete IL-2 (McHugh et al.; Clin Exp Allergy 1993; 23:137-44). […] Therefore, the influence of R,R-glycopyrrolate in combination with cysLT-receptor antagonists on TNFα- and interleukin(IL)-2-release was investigated by using human peripheral blood mononuclear cells (PBMCs). The investigations were approved by the University Ethics Committee according to the International Declarations of Helsinki and Tokyo.
(§2) PBMCs were isolated from heparinized blood samples of healthy donors by density gradient centrifugation. An equal volume of Hanks buffer (Life Technologies, Heidelberg, Germany) is added to heparinized whole blood samples. 15 ml Histopaque-1077 (Sigma, Deisenhofen, Germany) are overlayed with a maximum of 40 ml of blood/Hanks mixture were centrifuged for 30 min at room temperature (2000 rpm). A visible band containing PBMCs is transferred to a fresh tube and washed twice with Hanks-buffer. […]

IL-2 release = conditions: R,R-glycopyrrolate alone, up to 10 μmol/l; TPA 25 nM / ionomycin 1 μg/ml
Excerpt: as §1, §2

[3] = inhaled; asthmatic subjects (Christie); cited from earlier work
[4] = inhaled; asthmatic subjects (Lammers); cited from earlier work
IL-2 expression = conditions: ovalbumin-sensitized Brown Norway rats (Lin et al.); cited from earlier work
[5] = topically into the eyes; allergic conjunctivitis in rats (Papathanassiou et al.); cited from earlier work

M3 muscarinic receptors, sequence (P20309 whole entry): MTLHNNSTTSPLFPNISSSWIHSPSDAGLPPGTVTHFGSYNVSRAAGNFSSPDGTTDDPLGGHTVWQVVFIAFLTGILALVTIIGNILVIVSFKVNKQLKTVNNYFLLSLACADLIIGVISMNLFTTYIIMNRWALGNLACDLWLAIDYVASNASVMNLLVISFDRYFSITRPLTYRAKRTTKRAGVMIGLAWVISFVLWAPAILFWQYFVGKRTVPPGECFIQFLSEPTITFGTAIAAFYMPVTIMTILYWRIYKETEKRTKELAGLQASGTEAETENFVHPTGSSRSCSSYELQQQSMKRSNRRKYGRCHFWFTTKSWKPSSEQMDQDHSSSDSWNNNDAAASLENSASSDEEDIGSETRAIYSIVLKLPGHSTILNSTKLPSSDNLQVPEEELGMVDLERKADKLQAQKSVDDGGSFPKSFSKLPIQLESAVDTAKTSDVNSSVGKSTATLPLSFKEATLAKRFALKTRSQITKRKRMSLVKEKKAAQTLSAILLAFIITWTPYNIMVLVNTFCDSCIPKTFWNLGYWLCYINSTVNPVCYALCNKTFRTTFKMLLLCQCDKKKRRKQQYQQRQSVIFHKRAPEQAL

C[N+]1(C)CCC(OC(=O)C(O)(c2ccccc2)C2CCCC2)C1 (stereo not shown) [Glycopyrrolate]
dissociation from M3 muscarinic receptors (M3 muscarinic receptors): dissociates slowly | selectivity in binding to the M1-M3 receptors (M1-M3 receptors): no selectivity

COc1cc(C(=O)NS(=O)(=O)c2ccccc2C)ccc1Cc1cn(C)c2ccc(NC(=O)OC3CCCC3)cc12 [ICI 204,219]
protection against exercise-induced bronchoconstriction [1]: protected significantly

CN(C)C(=O)CCSC(SCCC(=O)O)c1cccc(/C=C/c2ccc3ccc(Cl)cc3n2)c1 (stereo not shown) [MK-571]
in vivo chemotactic response [2]: completely inhibited

C[N+]1(C)CC[C@@H](OC(=O)[C@](O)(c2ccccc2)C2CCCC2)C1.[Br-] [R,R-glycopyrrolate]
influence on LPS-induced TNFα release (TNFα release): did not influence | influence on stimulated IL-2 release (IL-2 release): had no influence

O=C(O)CCS[C@H](c1ccccc1CCCCCCCCc1ccccc1)[C@@H](O)C(=O)O [pobilukast (SK&F 104353), pobilukast]
LT induced bronchoconstriction [3]: inhibited significantly

CN(C)C(=O)CCS[C@H](SCCC(=O)O)c1cccc(/C=C/c2ccc3ccc(Cl)cc3n2)c1 [verlukast (MK-0679), verlukast]
mean FEV1 [4]: significant improvement

COc1cc(C(=O)NS(=O)(=O)c2ccccc2C)ccc1Cc1cn(C)c2ccc(NC(=O)OC3CCCC3)cc12 [zafirlukast]
IL-2 expression (IL-2 expression): able to decrease | development of symptoms and mediator release [5]: effectively inhibit
